Where a name gives a salt, the structure may show the parent alone.
Assays:
human Nav1.5 = human Nav1.5 (Homo sapiens (Human), UniProt Q14524); test: Human Nav1.5 inhibitory activity evaluation (automated patch clamp QPatch16X, HEK293 cells stably expressing human Nav1.5); assay type: cell-based
Method in brief: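 IC50 derived from concentration-response of inward current at the 20th of 20 action-potential-mimicking pulses (holding −80 mV, leak corrected with −100 mV step). HEK293 cells stably expressing human Nav1.5, room temperature, extracellular pH 7.4, intracellular CsF-based pH 7.3, 0.1% DMSO.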

male ICR mice [1] = test: Effect on acute pain (capsaicin-induced pain-related behavior, hind paw); assay type: in vivo
Protocol: Test Example 3: Effect on Acute Pain
Six-week old male ICR mice were used for the test. Test compounds were orally administered at 1-10 mg/kg and the mice were habituated to a clear observation cage for 60 minutes. The mice were lightly restrained under no anesthesia and 20 μL of 80 μg/mL (0.8% ethanol-saline) capsaicin solution was injected subcutaneously into the plantar surface of rihgt hind paw of mice. The mice were returned to the observation cage and, from just after that, the duration of pain-related behavior (licking, shaking) occurring in the right hind limb was measured as the reaction time for 5 minutes.
The inhibition rate of the test compound was determined by the following calculation formula. Test compound inhibition rate (%)=100×[1−(response time of test compound administered group/response time of vehicle control group)]

human Nav1.7 = human Nav1.7 (Homo sapiens (Human), UniProt Q15858); test: Human Nav1.7 inhibitory activity evaluation (automated patch clamp QPatch16X, HEK293A cells stably expressing human Nav1.7 and human Navβ1); assay type: cell-based
Method in brief: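 IC50 calculated from the concentration-response of inward current evoked by the second −10 mV, 50 ms depolarisation, which follows a 15 s conditioning step at roughly 30-40% inactivation and a 100 ms −120 mV interval. Cells: HEK293A expressing human Nav1.7/Navβ1, automated patch clamp, room temperature, 0.1% DMSO final.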

male ICR mice [2] = test: Effect on a neuropathic pain (L5 spinal nerve cut, von Frey 50% pain threshold); assay type: in vivo; conditions: allodynia-developed mice, dose of 10 mg/kg or less, single oral administration
Protocol: Test Example 4: Effect on a Neuropathic Pain
Five-week old male ICR mice were used for the test. The skin and muscles were incised to expose the sixth lumbar vertebra under isoflurane anesthesia, and the right transverse process was removed. The L5 spinal nerve was isolated from the surrounding tissue to cut out, and then the incision site was sutured.
The 50% pain threshold of the plantar surface was determined by referring to the method of Chaplan S R et al. (J Neurosci Methods 1994, 53: 55-63) using von Frey filaments (0.008 g, 0.02 g, 0.04 g, 0.07 g, 0.16 g, 0.4 g and 0.6 g). First, the mice were placed in a measurement case with a lattice scaffold and habituatedd until the animal settled; 0.07 g of filament was pressed against the plantar surface for about 3 seconds. If withdrawal behavior was observed, the filament with the stimulation intensity one level lower was used to apply stimulation, and conversely, if the withdrawal behavior was not detected, the filament with the stimulation intensity one level higher was used to apply stimulation. By repeating this operation, starting from 2 times before and after the presence or absence of escape behavior changed, the results for a total of 6 times were recorded, to calculate a 50% pain threshold using the following calculation formula. 50% pain threshold (g)=(10^[Xf+κδ]/10000)
Xf is the value of the stimulus intensity of the filament used in the last stimulation (log value), κ is the value derived from the pattern of presence/absence of withdrawal behavior for 6 times, and δ is the difference in stimulus intensity (log value) between the filaments used (here 0.365).

[3] = HEK293 cells stably expressing human Nav1.5, automated patch clamp QPatch16X
[4] = HEK293A cells stably expressing human Nav1.7 and human Navβ1, automated patch clamp QPatch16X
[5] = human Nav1.5, automated patch clamp
[6] = human Nav1.7, automated patch clamp

Sequence of human Nav1.7 (Q15858 whole entry): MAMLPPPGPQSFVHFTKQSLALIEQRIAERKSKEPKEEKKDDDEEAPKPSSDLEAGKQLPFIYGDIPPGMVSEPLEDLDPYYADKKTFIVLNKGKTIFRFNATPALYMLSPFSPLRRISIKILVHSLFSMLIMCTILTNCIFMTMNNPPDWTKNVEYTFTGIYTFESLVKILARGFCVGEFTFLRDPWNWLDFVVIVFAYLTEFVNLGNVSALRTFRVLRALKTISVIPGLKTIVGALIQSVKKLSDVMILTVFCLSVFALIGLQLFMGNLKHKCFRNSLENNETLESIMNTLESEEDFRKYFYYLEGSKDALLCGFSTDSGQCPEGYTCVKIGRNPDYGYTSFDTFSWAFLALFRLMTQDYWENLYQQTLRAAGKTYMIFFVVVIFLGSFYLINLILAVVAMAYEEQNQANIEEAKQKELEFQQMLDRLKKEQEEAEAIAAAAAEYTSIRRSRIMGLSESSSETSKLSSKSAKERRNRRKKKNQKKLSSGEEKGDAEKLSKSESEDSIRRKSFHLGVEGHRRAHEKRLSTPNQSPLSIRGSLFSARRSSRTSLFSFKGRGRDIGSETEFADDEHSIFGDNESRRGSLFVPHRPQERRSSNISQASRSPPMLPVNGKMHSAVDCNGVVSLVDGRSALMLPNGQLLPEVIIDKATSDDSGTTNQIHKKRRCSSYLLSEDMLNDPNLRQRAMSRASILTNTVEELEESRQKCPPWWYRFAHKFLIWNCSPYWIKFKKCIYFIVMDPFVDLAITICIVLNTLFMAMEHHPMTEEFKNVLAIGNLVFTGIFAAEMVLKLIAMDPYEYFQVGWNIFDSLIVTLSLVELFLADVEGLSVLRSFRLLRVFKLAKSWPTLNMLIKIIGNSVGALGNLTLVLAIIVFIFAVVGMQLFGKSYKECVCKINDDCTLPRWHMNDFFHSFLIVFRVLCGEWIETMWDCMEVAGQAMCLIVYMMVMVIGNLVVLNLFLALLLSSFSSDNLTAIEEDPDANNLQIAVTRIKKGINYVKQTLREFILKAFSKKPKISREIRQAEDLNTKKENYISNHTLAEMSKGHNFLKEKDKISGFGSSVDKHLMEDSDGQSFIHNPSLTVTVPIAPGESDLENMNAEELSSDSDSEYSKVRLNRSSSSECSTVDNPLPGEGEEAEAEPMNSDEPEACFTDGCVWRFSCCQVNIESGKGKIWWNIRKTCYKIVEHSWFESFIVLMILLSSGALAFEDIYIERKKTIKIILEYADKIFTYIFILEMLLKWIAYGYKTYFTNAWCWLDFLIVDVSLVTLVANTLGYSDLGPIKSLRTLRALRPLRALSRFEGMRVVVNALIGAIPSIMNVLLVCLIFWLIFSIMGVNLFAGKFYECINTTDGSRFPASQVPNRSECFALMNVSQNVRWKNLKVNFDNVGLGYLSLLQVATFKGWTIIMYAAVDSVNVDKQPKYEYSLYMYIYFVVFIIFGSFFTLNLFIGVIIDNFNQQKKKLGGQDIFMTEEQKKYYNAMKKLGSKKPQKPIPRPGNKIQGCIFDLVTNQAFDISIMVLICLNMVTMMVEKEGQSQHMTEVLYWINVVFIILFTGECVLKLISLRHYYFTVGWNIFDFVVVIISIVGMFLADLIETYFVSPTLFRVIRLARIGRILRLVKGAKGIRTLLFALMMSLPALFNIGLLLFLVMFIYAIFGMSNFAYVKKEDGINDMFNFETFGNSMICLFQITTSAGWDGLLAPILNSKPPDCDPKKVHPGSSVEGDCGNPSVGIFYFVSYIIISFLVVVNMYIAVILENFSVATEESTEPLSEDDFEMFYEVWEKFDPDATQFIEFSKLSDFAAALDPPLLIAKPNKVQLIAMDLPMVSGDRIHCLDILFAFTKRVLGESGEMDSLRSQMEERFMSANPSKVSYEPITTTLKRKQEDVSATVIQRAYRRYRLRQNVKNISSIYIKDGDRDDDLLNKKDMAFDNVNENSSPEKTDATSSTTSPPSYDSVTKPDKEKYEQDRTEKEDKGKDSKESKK
Sequence of human Nav1.7 (Q07699 19-218 partner): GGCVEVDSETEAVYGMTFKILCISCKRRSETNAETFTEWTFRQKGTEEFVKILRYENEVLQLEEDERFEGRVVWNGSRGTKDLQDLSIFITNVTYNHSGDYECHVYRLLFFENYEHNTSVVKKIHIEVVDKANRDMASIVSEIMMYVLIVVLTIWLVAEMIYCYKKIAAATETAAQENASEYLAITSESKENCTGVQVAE
Sequence of human Nav1.5 (Q14524 whole entry): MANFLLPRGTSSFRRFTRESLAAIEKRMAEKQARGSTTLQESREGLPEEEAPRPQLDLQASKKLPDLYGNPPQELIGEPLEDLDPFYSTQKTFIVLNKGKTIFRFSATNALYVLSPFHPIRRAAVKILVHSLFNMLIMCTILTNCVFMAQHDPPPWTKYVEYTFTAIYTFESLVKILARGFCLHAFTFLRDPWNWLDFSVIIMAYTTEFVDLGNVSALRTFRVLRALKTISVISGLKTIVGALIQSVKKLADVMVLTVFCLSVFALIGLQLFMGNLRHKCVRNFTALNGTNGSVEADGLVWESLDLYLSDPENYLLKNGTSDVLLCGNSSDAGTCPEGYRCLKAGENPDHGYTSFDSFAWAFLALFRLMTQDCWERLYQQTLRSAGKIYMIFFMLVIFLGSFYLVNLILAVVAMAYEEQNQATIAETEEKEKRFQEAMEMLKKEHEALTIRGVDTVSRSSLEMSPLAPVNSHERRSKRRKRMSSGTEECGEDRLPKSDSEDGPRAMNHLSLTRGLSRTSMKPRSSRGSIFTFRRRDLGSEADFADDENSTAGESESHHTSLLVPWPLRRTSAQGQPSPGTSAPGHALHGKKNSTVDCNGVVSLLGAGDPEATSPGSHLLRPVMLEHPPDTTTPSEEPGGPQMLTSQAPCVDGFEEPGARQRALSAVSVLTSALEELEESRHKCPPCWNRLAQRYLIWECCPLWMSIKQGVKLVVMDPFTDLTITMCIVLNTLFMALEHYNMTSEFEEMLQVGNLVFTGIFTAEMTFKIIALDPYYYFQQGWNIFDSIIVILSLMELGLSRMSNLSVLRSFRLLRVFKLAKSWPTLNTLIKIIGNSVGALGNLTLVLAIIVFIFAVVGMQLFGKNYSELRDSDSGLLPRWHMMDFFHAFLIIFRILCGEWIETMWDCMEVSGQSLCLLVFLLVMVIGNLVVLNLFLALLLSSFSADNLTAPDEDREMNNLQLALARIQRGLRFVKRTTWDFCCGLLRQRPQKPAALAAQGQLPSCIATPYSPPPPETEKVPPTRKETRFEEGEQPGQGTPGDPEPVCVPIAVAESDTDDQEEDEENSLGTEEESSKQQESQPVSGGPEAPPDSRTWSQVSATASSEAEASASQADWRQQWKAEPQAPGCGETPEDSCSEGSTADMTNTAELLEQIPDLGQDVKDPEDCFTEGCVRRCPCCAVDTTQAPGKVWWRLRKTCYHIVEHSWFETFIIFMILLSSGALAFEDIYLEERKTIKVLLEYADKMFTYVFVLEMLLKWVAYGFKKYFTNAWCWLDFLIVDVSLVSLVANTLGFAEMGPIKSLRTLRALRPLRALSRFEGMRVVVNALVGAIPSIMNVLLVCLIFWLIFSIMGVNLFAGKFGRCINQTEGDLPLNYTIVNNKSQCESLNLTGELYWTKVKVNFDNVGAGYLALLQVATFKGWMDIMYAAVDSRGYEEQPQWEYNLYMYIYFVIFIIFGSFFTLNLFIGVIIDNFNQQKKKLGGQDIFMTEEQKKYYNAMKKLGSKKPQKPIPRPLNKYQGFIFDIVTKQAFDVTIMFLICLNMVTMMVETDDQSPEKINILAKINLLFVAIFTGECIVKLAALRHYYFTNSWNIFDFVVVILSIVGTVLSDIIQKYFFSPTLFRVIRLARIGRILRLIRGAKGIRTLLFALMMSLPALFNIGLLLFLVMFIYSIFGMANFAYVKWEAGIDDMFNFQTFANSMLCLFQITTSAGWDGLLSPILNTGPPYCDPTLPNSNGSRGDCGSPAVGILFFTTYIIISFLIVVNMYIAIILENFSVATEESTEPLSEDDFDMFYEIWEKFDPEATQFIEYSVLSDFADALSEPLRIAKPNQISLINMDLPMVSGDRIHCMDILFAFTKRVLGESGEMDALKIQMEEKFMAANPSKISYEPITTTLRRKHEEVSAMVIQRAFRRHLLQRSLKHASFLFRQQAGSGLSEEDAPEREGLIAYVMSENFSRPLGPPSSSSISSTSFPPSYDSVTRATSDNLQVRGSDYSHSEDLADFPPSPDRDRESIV

Row | IC50 (human Nav1.7; [4]) | IC50 (human Nav1.7; [6]) | Structure (SMILES) | IC50 (human Nav1.5; [3]) | Inhibition rate (%) (male ICR mice [1]) | IC50 (human Nav1.5; [5]) | 50% pain threshold (antiallodynic effect) (male ICR mice [2])
1 | < 1000 nM |  | CCC1CCn2nc(C(=O)N[C@H]3COc4ccc(C#N)cc4C3)cc2O1 (single isomer, unassigned) [Example 92 (isomer A)] | ≥ 3000 nM | A (Compounds with an inhibition rate of 30% or more are indicated by the letter “A”) |  | 
2 | < 1000 nM |  | O=C(N[C@H]1COc2ccc(COCC(F)(F)F)cc2C1)c1cc2n(n1)CCC(COCC(F)(F)F)O2 (single isomer, unassigned) [129 (isomer A)] | ≥ 3000 nM | A (Compounds with an inhibition rate of 30% or more are indicated by the letter “A”) |  | 
3 | < 10000 nM |  | O=C(N[C@H]1COc2ccccc2C1)c1cn2c(n1)CNC(c1ccc(F)c(F)c1)C2 (some centres unmarked) [Example 44] | ≥ 3000 nM | A (Compounds with an inhibition rate of 30% or more are indicated by the letter “A”) |  | 
4 |  | < 1000 nM | N#Cc1ccc2c(c1)C[C@@H](NC(=O)c1cc3n(n1)CC(CCSCC(F)(F)F)O3)CO2 (single isomer, unassigned) [244 (isomer A)] |  | B (compounds with an inhibition rate of 20% or more and less than 30% are indicated by the letter “B”) | 1000 to 3000 nM | 
5 | < 1000 nM |  | COc1cc(C2CCn3nc(C(=O)N[C@H]4COc5ccc(C#N)cc5C4)cc3O2)ccn1 (single isomer, unassigned) [74 (isomer A)] | ≥ 3000 nM | A (Compounds with an inhibition rate of 30% or more are indicated by the letter “A”) |  | 
6 | < 1000 nM |  | N#Cc1ccc2c(c1)C[C@@H](NC(=O)c1cc3n(n1)CCC(COCC1CC1)O3)CO2 (single isomer, unassigned) [103 (isomer A)] | ≥ 3000 nM | A (Compounds with an inhibition rate of 30% or more are indicated by the letter “A”) |  | increased the 50% pain threshold
7 | < 1000 nM |  | CCCOCC1CCn2nc(C(=O)N[C@H]3COc4ccc(C#N)cc4C3)cc2O1 (single isomer, unassigned) [101 (isomer A)] | ≥ 3000 nM | C (compounds with an inhibition rate of 10% or more but less than 20% is indicated by the letter “C”) |  | 
8 |  | < 1000 nM | O=C(N[C@H]1COc2ccc(C(F)(F)F)cc2C1)c1cc2n(n1)CCC(C(F)F)O2 (single isomer, unassigned) [161 (isomer A)] |  | A (Compounds with an inhibition rate of 30% or more are indicated by the letter “A”) | ≥ 3000 nM | increased the 50% pain threshold
9 |  |  | N#Cc1ccc2c(c1)C[C@@H](NC(=O)c1cc3n(n1)CCN(Cc1ccc(F)cc1)C3)CO2 [Example 290, (R)—N-(6-cyanochroman-3-yl)-5-(4-fluorobenzyl)-4,5,6,7-tetrahydropyrazolo[1,5-a]pyrazine-2-carboxamide hydrochloride] |  | A (Compounds with an inhibition rate of 30% or more are indicated by the letter “A”) |  | increased the 50% pain threshold
10 | < 10000 nM |  | O=C(c1cn2c(n1)CNC(c1ccccc1)C2)N1CCC(c2cccc(C(F)(F)F)c2)C1 (centres unmarked) [Example 60] | ≥ 3000 nM | B (compounds with an inhibition rate of 20% or more and less than 30% are indicated by the letter “B”) |  | 
11 |  |  | N#Cc1ccc2c(c1)C[C@@H](NC(=O)c1cc3n(n1)CCC(CCOC(F)(F)F)O3)CO2 (single isomer, unassigned) [144 (isomer B)] |  | A (Compounds with an inhibition rate of 30% or more are indicated by the letter “A”) | ≥ 3000 nM | 
12 | < 1000 nM |  | N#Cc1ccc2c(c1)C[C@@H](NC(=O)c1cc3n(n1)CCC(COC(F)(F)F)O3)CO2 (single isomer, unassigned) [134 (isomer A)] | 1000 to 3000 nM | A (Compounds with an inhibition rate of 30% or more are indicated by the letter “A”) |  | increased the 50% pain threshold
13 |  |  | O=C(N[C@H]1COc2ccc(Cl)cc2C1)c1cn2c(n1)CCC(C(F)(F)F)C2 (single isomer, unassigned; isomer a) [Example 288, hydrochloride] |  | A (Compounds with an inhibition rate of 30% or more are indicated by the letter “A”) |  | 
14 | < 1000 nM |  | N#Cc1ccc2c(c1)C[C@@H](NC(=O)c1cc3n(n1)CCC(c1ccccc1F)O3)CO2 (stereo partly drawn) [Example 70, N—((R)-6-cyanochroman-3-yl)-5-(2-fluorophenyl)-6,7-dihydro-5H-pyrazolo[5,1-b][1,3]oxazine-2-carboxamide] | 1000 to 3000 nM | A (Compounds with an inhibition rate of 30% or more are indicated by the letter “A”) |  | increased the 50% pain threshold
15 | < 10000 nM |  | O=C(N[C@H]1COc2ccccc2C1)c1cn2c(n1)CCC(OCC(F)(F)F)C2 (stereo partly drawn) [Example 37, N—((R)-chroman-3-yl)-6-(2,2,2-trifluoroethoxy)-5,6,7,8-tetrahydroimidazo[1,2-a]pyridine-2-carboxamide] | ≥ 3000 nM | B (compounds with an inhibition rate of 20% or more and less than 30% are indicated by the letter “B”) |  | 
16 | < 10000 nM |  | O=C(N[C@H]1COc2ccc(C(F)F)cc2C1)c1cn2c(n1)CCC(OCC(F)(F)F)C2 (some centres unmarked) [Example 40] | ≥ 3000 nM | B (compounds with an inhibition rate of 20% or more and less than 30% are indicated by the letter “B”) |  | 
17 |  |  | Cn1ccc(-c2ccc3c(c2)C[C@@H](NC(=O)c2cc4n(n2)CC(CCOC(F)(F)F)O4)CO3)n1 (single isomer, unassigned) [213 (isomer B)] |  | B (compounds with an inhibition rate of 20% or more and less than 30% are indicated by the letter “B”) |  | 
18 |  |  | CCC1CCn2nc(C(=O)N[C@H]3COc4ccc(C#N)cc4C3)cc2O1 (single isomer, unassigned) [Example 92 (isomer B)] |  | A (Compounds with an inhibition rate of 30% or more are indicated by the letter “A”) |  | 
19 | < 10000 nM |  | O=C(c1cn2c(n1)CNC(c1ccccc1)C2)N1CCOC(c2cccc(C(F)(F)F)c2)C1 (centres unmarked) [Example 61] | ≥ 3000 nM | B (compounds with an inhibition rate of 20% or more and less than 30% are indicated by the letter “B”) |  | 
20 | < 10000 nM |  | N#Cc1ccc2c(c1)C[C@@H](NC(=O)c1cc3n(n1)CCC(COCC(F)(F)F)O3)CO2 (single isomer, unassigned) [115 (isomer A)] | ≥ 3000 nM | A (Compounds with an inhibition rate of 30% or more are indicated by the letter “A”) |  | 
21 | < 10000 nM |  | O=C(NCCc1cccc(C(F)(F)F)c1)c1cn2c(n1)CNC(c1ccccc1)C2 (centres unmarked) [Example 48] | ≥ 3000 nM | A (Compounds with an inhibition rate of 30% or more are indicated by the letter “A”) |  | 
22 |  | < 1000 nM | O=C(N[C@H]1COc2ccc(C(F)(F)F)cc2C1)c1nn2c(c1-c1ccccn1)COCC2 [Example 260, (R)-3-(pyridin-2-yl)-N-(6-(trifluoromethyl)chroman-3-yl)-6,7-dihydro-4H-pyrazolo[5,1-c][1,4]oxazine-2-carboxamide] |  | A (Compounds with an inhibition rate of 30% or more are indicated by the letter “A”) | ≥ 3000 nM | 
23 |  | < 1000 nM | COc1ncc(-c2ccc3c(c2)C[C@@H](NC(=O)c2cc4n(n2)CC(CCOCC2CC2)O4)CO3)cn1 (single isomer, unassigned) [204 (isomer A)] |  | A (Compounds with an inhibition rate of 30% or more are indicated by the letter “A”) | ≥ 3000 nM | 
